Laboratory results as given in US20200123115A1, “COMPOUNDS HAVING MULTIMODAL ACTIVITY AGAINST PAIN” (ESTEVE PHARMACEUTICALS, S.A., priority 2017, published 2020).

How the values were obtained:
[1] = biological target: Human α2δ-1 subunit of Cav2.2 calcium channel (Homo sapiens, UniProt P54289); assay: Human α2δ-1 subunit of Cav2.2 calcium channel assay, [3H]-Gabapentin binding; settings: human α2δ-1 enriched membranes, 15 nM [3H]-Gabapentin
Protocol: Human α2δ-1 Subunit of Cav2.2 Calcium Channel Assay
Human α2δ-1 enriched membranes (2.5 μg) were incubated with 15 nM of radiolabeled [3H]-Gabapentin in assay buffer containing Hepes-KOH 10 mM, pH 7.4. NSB (non specific binding) was measured by adding 10 μM pregabalin. After 60 min incubation at 27° C., binding reaction was terminated by filtering through Multiscreen GF/C (Millipore) presoaked in 0.5% polyethyleneimine in Vacuum Manifold Station, followed by 3 washes with ice-cold filtration buffer containing 50 mM Tris-HCl, pH 7.4. Filter plates were dried at 60° C. for 1 hour and 30 μL of scintillation cocktail were added to each well before radioactivity reading. Readings were performed in a Trilux 1450 Microbeta radioactive counter (Perkin Elmer).

[2] = biological target: Human norepinephrine transporter (NET) (Homo sapiens, UniProt P23975); assay: Binding assay to human norepinephrine transporter (NET), [3H]-Nisoxetin; settings: human NET enriched membranes, 5 nM [3H]-Nisoxetin
Protocol: Binding Assay to Human Norepinephrine Transporter (NET).
Human norepinephrine transporter (NET) enriched membranes (5 μg) were incubated with 5 nM of radiolabeled [3H]-Nisoxetin in assay buffer containing 50 mM Tris-HCl, 120 mM NaCl, 5 mM KCl, pH 7.4.
NSB (non specific binding) was measured by adding 1 μM. After 60 min incubation at 4° C., binding reaction was terminated by filtering through Multiscreen GF/C (Millipore) presoaked in 0.5% polyethyleneimine in Vacuum Manifold Station, followed by 3 washes with ice-cold filtration buffer containing 50 mM Tris-HCl, 0.9% NaCl, pH 7.4.
Filter plates were dried at 60° C. for 1 hour and 30 μL of scintillation cocktail were added to each well before radioactivity reading.
Readings were performed in a Trilux 1450 Microbeta radioactive counter (Perkin Elmer).

Chain of Human α2δ-1 subunit of Cav2.2 calcium channel (P54289 25-1103): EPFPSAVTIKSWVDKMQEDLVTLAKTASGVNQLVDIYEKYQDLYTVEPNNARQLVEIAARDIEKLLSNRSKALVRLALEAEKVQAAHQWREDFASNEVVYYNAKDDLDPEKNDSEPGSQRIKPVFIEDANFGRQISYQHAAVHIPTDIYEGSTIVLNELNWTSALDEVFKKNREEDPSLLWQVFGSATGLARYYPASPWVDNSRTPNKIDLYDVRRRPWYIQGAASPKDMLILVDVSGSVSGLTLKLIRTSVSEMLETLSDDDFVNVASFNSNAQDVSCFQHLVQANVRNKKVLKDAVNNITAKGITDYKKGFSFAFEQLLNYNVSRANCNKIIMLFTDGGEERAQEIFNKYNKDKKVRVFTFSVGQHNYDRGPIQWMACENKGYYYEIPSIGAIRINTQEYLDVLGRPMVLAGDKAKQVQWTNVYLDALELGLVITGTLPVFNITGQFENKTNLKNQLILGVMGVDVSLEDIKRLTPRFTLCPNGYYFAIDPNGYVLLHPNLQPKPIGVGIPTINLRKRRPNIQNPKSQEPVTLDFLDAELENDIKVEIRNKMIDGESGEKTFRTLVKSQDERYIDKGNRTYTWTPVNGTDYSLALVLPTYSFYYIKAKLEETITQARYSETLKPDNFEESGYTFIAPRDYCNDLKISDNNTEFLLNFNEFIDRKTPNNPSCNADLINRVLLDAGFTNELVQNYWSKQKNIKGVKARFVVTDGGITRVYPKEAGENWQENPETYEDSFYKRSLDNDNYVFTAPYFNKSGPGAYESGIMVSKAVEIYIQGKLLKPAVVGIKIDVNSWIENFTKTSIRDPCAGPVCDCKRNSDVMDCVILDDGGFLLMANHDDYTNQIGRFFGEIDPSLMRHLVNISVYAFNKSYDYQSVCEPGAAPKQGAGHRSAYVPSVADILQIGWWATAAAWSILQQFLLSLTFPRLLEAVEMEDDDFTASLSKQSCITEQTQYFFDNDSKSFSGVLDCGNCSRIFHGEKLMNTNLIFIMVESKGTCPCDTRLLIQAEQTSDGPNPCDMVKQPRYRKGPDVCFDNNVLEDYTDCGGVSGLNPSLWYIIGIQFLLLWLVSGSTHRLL
Chain of Human norepinephrine transporter (NET) (P23975 whole entry): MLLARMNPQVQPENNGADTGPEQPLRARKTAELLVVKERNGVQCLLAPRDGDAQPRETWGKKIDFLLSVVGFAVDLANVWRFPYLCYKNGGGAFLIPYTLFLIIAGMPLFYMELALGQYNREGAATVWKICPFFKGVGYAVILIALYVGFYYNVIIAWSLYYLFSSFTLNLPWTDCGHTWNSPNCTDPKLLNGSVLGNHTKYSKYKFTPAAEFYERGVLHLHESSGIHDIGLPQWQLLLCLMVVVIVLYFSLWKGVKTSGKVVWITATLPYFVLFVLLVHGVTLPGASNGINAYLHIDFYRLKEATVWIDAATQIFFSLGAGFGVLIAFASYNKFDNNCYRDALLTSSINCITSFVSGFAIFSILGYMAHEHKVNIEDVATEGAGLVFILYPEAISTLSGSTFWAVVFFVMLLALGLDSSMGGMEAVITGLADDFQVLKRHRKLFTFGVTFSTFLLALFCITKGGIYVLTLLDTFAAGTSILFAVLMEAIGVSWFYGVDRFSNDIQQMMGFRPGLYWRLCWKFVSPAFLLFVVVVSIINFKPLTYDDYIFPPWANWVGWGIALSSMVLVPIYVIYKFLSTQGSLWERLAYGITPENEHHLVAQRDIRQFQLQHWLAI

| Ki [1] [nM] | Ki [2] [nM] | Structure (SMILES) |
| --- | --- | --- |
| 500 to 5000 | 100 to 500 | CNCC[C@H](Oc1cccc(-c2ccnc(C)n2)c1)c1ccccc1 [Example 6, (S)—N-methyl-3-(3-(2-methylpyrimidin-4-yl)phenoxy)-3-phenylpropan-1-amine] |
| 500 to 5000 | 500 to 1000 | CNCC[C@@H](Oc1cccc(-c2ccnc(C)n2)c1)c1ccccc1 [Example 7, (R)—N-methyl-3-(3-(2-methylpyrimidin-4-yl)phenoxy)-3-phenylpropan-1-amine] |
| 500 to 5000 | ≥ 1000 | CNCCNc1nccc(-c2cccc(O[C@@H](CCNC)c3ccccc3)c2)n1 [Example 32, (S)—N1-methyl-N2-(4-(3-(3-(methylamino)-1-phenylpropoxy)phenyl)pyrimidin-2-yl)ethane-1,2-diamine] |
| < 500 | 100 to 500 | CNCCC(Oc1cccc(-c2ccnc(C)c2)c1)c1cccs1 (centres unmarked) [Example 19, N-methyl-3-(3-(2-methylpyridin-4-yl)phenoxy)-3-(thiophen-2-yl)propan-1-amine] |
| 500 to 5000 | 100 to 500 | CCNc1nccc(-c2cccc(O[C@@H](CCNC)c3ccccc3)c2)n1 [Example 29, (S)—N-ethyl-4-(3-(3-(methylamino)-1-phenylpropoxy)phenyl)pyrimidin-2-amine] |
| 500 to 5000 | ≥ 1000 | CNCCC(Oc1cccc(-c2cnc(OC)nc2)c1)c1cccs1 (centres unmarked) [Example 18, 3-(3-(2-methoxypyrimidin-5-yl)phenoxy)-N-methyl-3-(thiophen-2-yl)propan-1-amine] |
| 500 to 5000 | < 100 | CNCC[C@@H](Oc1cccc(-c2ccnc(SC)n2)c1)c1ccccc1 [Example 8, (R)—N-methyl-3-(3-(2-(methylthio)pyrimidin-4-yl)phenoxy)-3-phenylpropan-1-amine] |
| 500 to 5000 | 100 to 500 | CNCCC(Oc1cccc(-c2cc(C)nc(C)c2)c1)c1cccs1 (centres unmarked) [Example 26, 3-(3-(2,6-dimethylpyridin-4-yl)phenoxy)-N-methyl-3-(thiophen-2-yl)propan-1-amine] |
| ≥ 5000 | < 100 | CNCC[C@H](Oc1cccc(-c2ccnc(NC)n2)c1)c1ccccc1 [Example 30, (S)—N-methyl-4-(3-(3-(methylamino)-1-phenylpropoxy)phenyl)pyrimidin-2-amine] |
| 500 to 5000 | ≥ 1000 | CNCC[C@@H](Oc1cccc(-c2ccnc(N[C@@H]3CCNC3)n2)c1)c1ccccc1 [Example 33, 4-(3-((R)-3-(methylamino)-1-phenylpropoxy)phenyl)-N—((R)-pyrrolidin-3-yl)pyrimidin-2-amine] |
| 500 to 5000 | ≥ 1000 | CNCCC(Oc1cccc(-c2cnc(C)nc2)c1)c1cccs1 (centres unmarked) [Example 23, N-methyl-3-(3-(2-methylpyrimidin-5-yl)phenoxy)-3-(thiophen-2-yl)propan-1-amine] |
| 500 to 5000 | 500 to 1000 | CNCC[C@@H](Oc1cccc(-c2ccnc(N[C@H]3CCNC3)n2)c1)c1ccccc1 [Example 34, 4-(3-((R)-3-(methylamino)-1-phenylpropoxy)phenyl)-N—((S)-pyrrolidin-3-yl)pyrimidin-2-amine] |
| 500 to 5000 | ≥ 1000 | CNCC[C@H](Oc1cccc(-c2ccnc(N3CCNCC3)n2)c1)c1ccccc1 [Example 28, (S)—N-Methyl-3-phenyl-3-(3-(2-(piperazin-1-yl)pyrimidin-4-yl)phenoxy)propan-1-amine] |
| ≥ 5000 | 500 to 1000 | CNCCC(Oc1cccc(-c2ccc(C)nn2)c1)c1ccccc1 (centres unmarked) [Example 3, N-methyl-3-(3-(6-methylpyridazin-3-yl)phenoxy)-3-phenylpropan-1-amine] |
| 500 to 5000 | 100 to 500 | CNCCC(Oc1cccc(-c2ccncc2)c1)c1cccs1 (centres unmarked) [Example 27, N-methyl-3-(3-(pyridin-4-yl)phenoxy)-3-(thiophen-2-yl)propan-1-amine] |
| 500 to 5000 | ≥ 1000 | CNCC[C@H](Oc1cccc(-c2ccnc(N3CCN(C)CC3)n2)c1)c1ccccc1 [Example 31, (S)—N-methyl-3-(3-(2-(4-methylpiperazin-1-yl)pyrimidin-4-yl)phenoxy)-3-phenylpropan-1-amine] |
| ≥ 5000 | < 100 | CNCC[C@H](Oc1cccc(-c2ccnc(N(C)C)n2)c1)c1ccccc1 [Example 35, (S)—N,N-dimethyl-4-(3-(3-(methylamino)-1-phenylpropoxy)phenyl)pyrimidin-2-amine] |
| 500 to 5000 | < 100 | CNCC[C@H](Oc1cccc(-c2ccnc(SC)n2)c1)c1ccccc1 [Example 5, (S)—N-methyl-3-(3-(2-(methylthio)pyrimidin-4-yl)phenoxy)-3-phenylpropan-1-amine] |
| 500 to 5000 | 100 to 500 | CNCCC(Oc1cccc(-c2ccnc(C)n2)c1)c1ccccc1 (centres unmarked) [Example 2, N-methyl-3-(3-(2-methylpyrimidin-4-yl)phenoxy)-3-phenylpropan-1-amine] |
| 500 to 5000 | 100 to 500 | CNCC[C@H](Oc1cccc(-c2ccnc(N)n2)c1)c1ccccc1 [Example 10, (S)-4-(3-(3-(methylamino)-1-phenylpropoxy)phenyl)pyrimidin-2-amine] |
| 500 to 5000 | 100 to 500 | CNCCC(Oc1cccc(-c2ccnc(C(F)(F)F)c2)c1)c1cccs1 (centres unmarked) [Example 22, N-methyl-3-(thiophen-2-yl)-3-(3-(2-(trifluoromethyl)pyridin-4-yl)phenoxy)propan-1-amine] |
| 500 to 5000 | 500 to 1000 | CNCC[C@H](Oc1cccc(-c2ccnc(N[C@@H]3CCNC3)n2)c1)c1ccccc1 [Example 36, 4-(3-((S)-3-(methylamino)-1-phenylpropoxy)phenyl)-N—((R)-pyrrolidin-3-yl)pyrimidin-2-amine] |
| 500 to 5000 | 500 to 1000 | CNCCC(Oc1cccc(-c2ccncc2C)c1)c1cccs1 (centres unmarked) [Example 24, N-methyl-3-(3-(3-methylpyridin-4-yl)phenoxy)-3-(thiophen-2-yl)propan-1-amine] |
| 500 to 5000 | 500 to 1000 | CNCCC(Oc1cccc(-c2ccncn2)c1)c1ccccc1 (centres unmarked) [Example 4, N-methyl-3-phenyl-3-(3-(pyrimidin-4-yl)phenoxy)propan-1-amine] |
| 500 to 5000 | < 100 | CNCCC(Oc1cccc(-c2ccnc(OC)n2)c1)c1ccccc1 (centres unmarked) [Example 1, 3-(3-(2-Methoxypyrimidin-4-yl)phenoxy)-N-methyl-3-phenylpropan-1-amine] |
